From patent publication US20130225427A1, “METHOD FOR PREDICTION OF RESPONSE TO IMMUNE MEDIATED DISEASE THERAPEUTICS” (SANFORD-BURNHAM MEDICAL RESEARCH INSTITUTE, priority 2010, published 2013)

Columns and labels:
Type in all cases: in vivo, human
APC = assay: Taqman gene expression in APC from PBMC of treated RA clinical responders; conditions: compared to initiation of the treatment
Source text: (§1) The aim of this study is to identify clusters of immune pathways characteristic of responsiveness that are specific to treatment. […] We show as summary a color coded table. We clustered individual immune functions according to cut off values identified in preliminary studies (25% change compared with baseline at active disease). The Table 1 depicts the differences for patients who are all responders and therefore otherwise clinically indistinguishable ([…]).
(§2) PBMCs from each patient were incubated for 48 hours with plate bound anti-CD3/CD28. Non-adherent cells were collected to enrich T cells by pan T-cell MACS. T cells were FACS sorted on CD4+CD127+ (TE) and CD4+CD25+CD127− (nTreg), and CD4+CD25+PD1+CD127− (PD1+ Treg). Aliquots of all sorted cells were collected for TaqMan. The remainder of the APCs and TE were cultured with isolated Treg. CFSE was added to the TE cells and cultured for a total of 4 days with anti-CD3/CD28.

Te Cells = assay: Taqman gene expression in sorted CD4+CD127+ effector T cells (TE) of treated RA clinical responders; conditions: compared to initiation of the treatment
Source text: as §1, §2

nTreg = assay: Taqman gene expression in sorted CD4+CD25+CD127− nTreg of treated RA clinical responders; conditions: compared to initiation of the treatment
Source text: as §1, §2

PD1 + Treg = assay: Taqman gene expression in sorted CD4+CD25+PD1+CD127− PD1+ Treg of treated RA clinical responders; conditions: compared to initiation of the treatment
Description: The aim of this study is to identify clusters of immune pathways characteristic of responsiveness that are specific to treatment. […] We clustered individual immune functions according to cut off values identified in preliminary studies (25% change compared with baseline at active disease).
as §2

Treg = assay: Suppression activity of Treg on CFSE-labelled TE proliferation; conditions: when clinical response is seen (FIG. 3)
Description: as §2

CN(Cc1cnc2nc(N)nc(N)c2n1)c1ccc(C(=O)N[C@@H](CCC(=O)O)C(=O)O)cc1 [MTX, methotrexate]
B7-H1 up or down regulated (APC): up regulated (cut off values identified in preliminary studies (25% change compared with baseline at active disease))
B7-H2 up or down regulated (APC): up regulated (cut off values identified in preliminary studies (25% change compared with baseline at active disease))
B7-H4 up or down regulated (APC): up regulated (cut off values identified in preliminary studies (25% change compared with baseline at active disease))
FAS-L up or down regulated (APC): up regulated (cut off values identified in preliminary studies (25% change compared with baseline at active disease))
IL-10 up or down regulated (APC): up regulated (cut off values identified in preliminary studies (25% change compared with baseline at active disease))
INFγ up or down regulated (APC): up regulated (cut off values identified in preliminary studies (25% change compared with baseline at active disease))
TGFβ up or down regulated (APC): up regulated (cut off values identified in preliminary studies (25% change compared with baseline at active disease))
percent change in expression of B7-H1 (APC): +106.4%
percent change in expression of B7-H2 (APC): +98.4%
percent change in expression of B7-H4 (APC): +118.6%
percent change in expression of FAS-L (APC): +83.1%
percent change in expression of IL-10 (APC): +28.6%
percent change in expression of INFγ (APC): +219.9%
percent change in expression of TGFβ (APC): +31.1%
IL-10 up or down regulated (Te Cells): no change (cut off values identified in preliminary studies (25% change compared with baseline at active disease))
IL-17A up or down regulated (Te Cells): no change (cut off values identified in preliminary studies (25% change compared with baseline at active disease))
TGFβ up or down regulated (Te Cells): up regulated (cut off values identified in preliminary studies (25% change compared with baseline at active disease))
percent change in expression of FAS-L (Te Cells): 20.5%
percent change in expression of GATA-3 (Te Cells): −21.6%
percent change in expression of ICOS (Te Cells): −7.2%
percent change in expression of IL-10 (Te Cells): +15.2%
percent change in expression of IL-17A (Te Cells): +0.3%
percent change in expression of INFγ (Te Cells): +1.7%
percent change in expression of PD-1 (Te Cells): +5.6%
percent change in expression of TGFβ (Te Cells): +150.8%
percent change in expression of TNFα (Te Cells): 2.3%
percent change in expression of Tbet (Te Cells): −17.1%
CTLA4 up or down regulated (nTreg): up regulated (cut off values identified in preliminary studies (25% change compared with baseline at active disease))
FoxP3 up or down regulated (nTreg): up regulated (cut off values identified in preliminary studies (25% change compared with baseline at active disease))
Granzyme B up or down regulated (nTreg): up regulated (cut off values identified in preliminary studies (25% change compared with baseline at active disease))
INFγ up or down regulated (nTreg): up regulated (cut off values identified in preliminary studies (25% change compared with baseline at active disease))
PD1 up or down regulated (nTreg): up regulated (cut off values identified in preliminary studies (25% change compared with baseline at active disease))
TGFβ up or down regulated (nTreg): up regulated (cut off values identified in preliminary studies (25% change compared with baseline at active disease))
percent change in expression of CTLA4 (nTreg): +684.0%
percent change in expression of FoxP3 (nTreg): 439.0%
percent change in expression of Granzyme B (nTreg): +393.7%
percent change in expression of INFγ (nTreg): +99.6%
percent change in expression of PD1 (nTreg): +474.2%
percent change in expression of TGFβ (nTreg): +69.3%
CTLA4 up or down regulated (PD1 + Treg): up regulated (cut off values identified in preliminary studies (25% change compared with baseline at active disease))
FoxP3 up or down regulated (PD1 + Treg): up regulated (cut off values identified in preliminary studies (25% change compared with baseline at active disease))
Granzyme B up or down regulated (PD1 + Treg): up regulated (cut off values identified in preliminary studies (25% change compared with baseline at active disease))
IL-10 up or down regulated (PD1 + Treg): up regulated (cut off values identified in preliminary studies (25% change compared with baseline at active disease))
INFγ up or down regulated (PD1 + Treg): up regulated (cut off values identified in preliminary studies (25% change compared with baseline at active disease))
PD1 up or down regulated (PD1 + Treg): up regulated (cut off values identified in preliminary studies (25% change compared with baseline at active disease))
Perforin up or down regulated (PD1 + Treg): up regulated (cut off values identified in preliminary studies (25% change compared with baseline at active disease))
TGFβ up or down regulated (PD1 + Treg): up regulated (cut off values identified in preliminary studies (25% change compared with baseline at active disease))
percent change in expression of FoxP3 (PD1 + Treg): +124.1%
percent change in expression of Granzyme B (PD1 + Treg): +213.8%
percent change in expression of IL-10 (PD1 + Treg): 168.8%
percent change in expression of INFγ (PD1 + Treg): +355.0%
percent change in expression of PD1 (PD1 + Treg): 290.3%
percent change in expression of Perforin (PD1 + Treg): +288.7%
percent change in expression of TGFβ (PD1 + Treg): +254.4%
suppressive capability of Treg to suppress effector proliferation (Treg): enhanced
